Blank lines part the entries; values can stand above or below the molecule they belong to.
Key:
MCF-7 cells = assay: Cell proliferation assay in MCF-7 breast cancer cells; assay type: cell-based, human; settings: for IC50: Homo sapiens, MCF7, 168 h, MCF-7, 7 days, MTT, read-out: IC50 (half-maximal reduction in 570 nm absorbance)
Experimental: MCF-7 cells are human mammary carcinoma cells that are positive for estrogen receptors. The potential activity of vitamin D3 analogs against breast cancer was assessed from inhibition of proliferation of MCF-7 cells in culture.
(§1) MCF-7 cells were plated at 5000 cells/well in 96-well plates and incubated at 37° C. in 5% CO2 /95% air in Dulbecco's Modified Eagle Medium containing 10% fetal bovine serum 700 nM insulin, 2 mM glutamine, 0.1 mM MEM non-essential amino acids and 1 mM sodium pyruvate. Stock solutions of vitamin D3 analogs were prepared at a concentration of 10 mM in absolute ethanol and stored at -20° C. under argon. One day after plating, MCF-7 cells were refed with either control medium or medium containing varying concentrations of the vitamin D3 analog.
For each vitamin D3 analog, the IC50 value was determined from a graph relating the optical density at 570 nm to the concentration used. The IC50 value was defined as the concentration of the vitamin D3 analog corresponding to half-maximal reduction in 570 nm absorbance.

[1] = cited from earlier work
ZR-75 cells = assay: Cell proliferation assay in ZR-75 breast cancer cells; assay type: cell-based, human; settings: for IC50: Homo sapiens, ZR75, 240 h, ZR-75, 10 days, MTT, read-out: IC50 (half-maximal reduction in 570 nm absorbance)
Experimental: ZR-75 cells are human mammary carcinoma cells that are positive for estrogen receptors. The potential activity of vitamin D3 analogs against breast cancer was assessed from inhibition of proliferation of ZR-75 cells in culture.
as §1, with “ZR-75” for “MCF-7”, “12,500” for “5000”, “24-well” for “96-well”, “RPMI medium” for “Dulbecco's Modified Eagle Medium”, “and” for “700 nM insulin,”, “glutamine.” for “glutamine, 0.1 mM MEM non-essential amino acids and 1 mM sodium pyruvate.”
The IC50 value was defined as the concentration of the vitamin D3 analog corresponding to half-maximal reduction in 570 nm absorbance.

PTH synthesis = settings: cited from earlier work
bone = settings: animal studies; cited from earlier work
[2] = system: postmenopausal osteoporosis; settings: cited from earlier work
murine leukemia = murine leukemia model systems; cited from earlier work
[3] = system: parathyroid hormone (serum PTH); assay: Serum PTH suppression in rat renal insufficiency model (7/8 nephrectomy, secondary hyperparathyroidism); assay type: in vivo, Female Sprague Dawley rats; settings: for PTH T = 1 - T = 0: po, seven days
Experimental: (§2) Female Sprague Dawley rats were anesthesized, their right kidney removed and 2-3 branches of the left renal artery were ligated to achieve 7/8 nephrectomy. They were placed on a high phosphorous diet (0.6% Ca and 0.8 phosphorous). Approximately 3-6 weeks after surgery, rats were bled to screen serum PTH levels and rats with PTH levels between 100-500 pg/ml were selected for the study.
(§3) 1 6 Formula Ia, 10 μg/kg/day, po
(§4) 2 6 Formula Ia, 1 μg/kg/day, po
(§5) 3 6 Formula Ia, 0.1 μg/kg/day, po
(§6) There was a pre-bleed (T=0) and each group was dosed daily for seven days by oral gavage with either the compound of Formula Ia (10, 1 or 0.1 μg/kg/day), vehicle control or 1,24(OH)2 vitamin D3 positive control. Compounds were predissolved in ethanol and diluted with vehicle (Miglyol 812) followed by evaporation of the ethanol.
(§7) After the last day of dosing, the animals were bled again (T=1) and sacrificed. Serum PTH assays were done with Nichols Institute Diagnostic Kit #40-2240. Serum calcium assays were done with Sigma Diagnostic Kit #587 with o-cresophthaleiri. Serum creatinine assays were done with Sigma Diagnostic Kit #1600-320 with […].

[4] = system: steroid-induced bone loss; settings: 0.5 to 1.0 micrograms/day plus calcium 1000 mg/day, with or without intranasal calcitonin 400 IU/day; cited from earlier work
[5] = Serum calcium in rat renal insufficiency model (7/8 nephrectomy); assay type: in vivo, Female Sprague Dawley rats; design: Final Ca Levels: unit not given here; settings: for Final Ca Levels: po, seven days, serum
Experimental: as §2, §3, §4, §5, §6, §7

Compound: C=C1/C(=C\C=C2/CCC[C@]3(C)[C@@H]([C@H](C)CCCC(C)(C)O)CC[C@@H]23)C[C@@H](O)C[C@@H]1O [1,25(OH)2 vit. D3, 1,25-Dihydroxy-cholecalciferol]
IC50 (MCF-7 cells): 40 nM
hypercalcemia in vivo ([1]; high dose treatment): hypercalcemia observed with high dose treatment
therapeutic ratio ([1]; human usage): poor therapeutic ratio (hypercalciuria and hypercalcemia as well as nephrotoxicity)
hypercalcemic effects ([1]; narrow therapeutic window, especially at high doses): potent hypercalcemic effects
IC50 (ZR-75 cells): 13 nM
suppressive action on PTH synthesis (PTH synthesis): direct suppressive action on PTH synthesis
bone anabolic activity (bone): suggested bone anabolic activity
lower rate of new vertebral fractures versus elemental calcium 1000 mg/day ([2]; 0.25 microgram twice daily, 3 years, mild to moderate disease): 3 fold
hypercalcaemia ([2]; at recommended dosages): infrequent and mild
therapeutic window: proximity of therapeutic and toxic doses ([2]; human, in vivo): close proximity of therapeutic and toxic doses
tolerability ([2]; overall): well tolerated
anti-proliferative and differentiating effect (murine leukemia): not only an anti-proliferative effect, but also a differentiating effect
PTH T = 1 - T = 0 ([3]; 0.1 μg/kg (table 2; table 1: 0.2 μg/kg/day)): -66 pg/mL
steroid-induced bone loss [4]: prevented steroid-induced bone loss

Final Ca Levels ([5]; 0.1 μg/kg/day): 10.20
Final Ca Levels ([5]; 1 μg/kg/day): 10.35
Final Ca Levels ([5]; 10 μg/kg/day): 11.97
elevated calcium levels ([5]; in words): without causing elevated calcium levels
IC50 (MCF-7 cells): 0.8 nM
IC50 (ZR-75 cells): 0.3 nM
Compound: C=C1/C(=C\C=C2/CCC[C@]3(C)[C@@H](C(CCCC(C)(C)O)CCCC(C)(C)O)CC[C@@H]23)C[C@@H](O)C[C@@H]1O [Formula Ia, (1α,3β,5Z,7E)-21-(3-hydroxy-3-methylbutyl)-9,10-Secocholesta-5,7,10, (19)-triene-1,3,25-triol]
potency relative to 1,25-dihydroxy-cholecalciferol in inhibition of MCF-7 growth (MCF-7 cells; MCF-7): approximately 50 times
potency relative to 1,25-dihydroxy-cholecalciferol in inhibition of ZR-75 growth (ZR-75 cells; ZR-75): more than 40 times
PTH T = 1 - T = 0 ([3]; 0.1 μg/kg/day): 112 pg/mL
PTH T = 1 - T = 0 ([3]; 1 μg/kg/day): -124 pg/mL
PTH T = 1 - T = 0 ([3]; 10 μg/kg/day): -132 pg/mL
suppressing the elevated levels of parathyroid hormone, versus 1,25(OH)2 vit. D3 ([3]; in words): more effective than 1,25(OH)2 vit. D3
